PubChem BioAssay AID248 (DTP/NCI, 2004)
Values joined by “and” are separate entries in the source; they are usually repeats but may differ in a detail not shown here. Equal values may be shown once. Toxic doses and inconclusive results are not listed. Rule as the data show it: active = T/C of 150% or more; inactive = T/C below 125%.

System: L1210 leukemia ip in BDF1 mice, survival T/C
Experiment: NCI In Vivo Anticancer Drug Screen. Data for tumor model L1210 Leukemia (intraperitoneal) in B6D2F1 (BDF1) mice
Conditions: endpoint: mean survival time, higher = longer survival
Outline: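 Antitumor effect is assessed in tumor-bearing animals. Survival in the compound arm is compared with a vehicle-dosed control arm and expressed as their quotient.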

[1] = dose: 50.0 mg/kg/injection, schedule: Q01DX009 (ip), vehicle: saline with Tween-80
[2] = dose: 100.0 mg/kg/injection, schedule: Q01DX009 (ip), vehicle: saline with Tween-80
[3] = dose: 100.0 mg/kg/injection, schedule: Q04DX003 (ip), vehicle: Klucel (hydroxypropylcellulose) (HPC)
[4] = dose: 200.0 mg/kg/injection, schedule: Q01DX009 (ip), vehicle: saline with Tween-80
[5] = dose: 200.0 mg/kg/injection, schedule: Q04DX003 (ip), vehicle: Klucel (hydroxypropylcellulose) (HPC)
[6] = dose: 400.0 mg/kg/injection, schedule: Q04DX003 (ip), vehicle: Klucel (hydroxypropylcellulose) (HPC)
[7] = dose: 100.0 mg/kg/injection, schedule: Q04DX003 (ip), vehicle: saline
[8] = dose: 200.0 mg/kg/injection, schedule: Q04DX003 (ip), vehicle: saline
[9] = dose: 400.0 mg/kg/injection, schedule: Q04DX003 (ip), vehicle: saline
[10] = dose: 100.0 mg/kg/injection, schedule: Q01DX001 (ip), vehicle: Klucel (hydroxypropylcellulose) (HPC)
[11] = dose: 200.0 mg/kg/injection, schedule: Q01DX001 (ip), vehicle: Klucel (hydroxypropylcellulose) (HPC)
[12] = dose: 400.0 mg/kg/injection, schedule: Q01DX001 (ip), vehicle: Klucel (hydroxypropylcellulose) (HPC)
[13] = dose: 100.0 mg/kg/injection, schedule: Q01DX001 (ip), vehicle: saline
[14] = dose: 50.0 mg/kg/injection, schedule: Q01DX001 (ip), vehicle: saline
[15] = dose: 200.0 mg/kg/injection, schedule: Q01DX001 (ip), vehicle: saline
[16] = dose: 400.0 mg/kg/injection, schedule: Q01DX001 (ip), vehicle: saline

Measured: T/C

O=C/C=C/C=C/C=C/C=C/C=C\c1ccccc1
inactive: dose: 75.0 mg/kg/injection, schedule: Q01DX001 (ip), vehicle: other 92 % of control | dose: 150.0 mg/kg/injection, schedule: Q01DX001 (ip), vehicle: other 96 % of control | dose: 300.0 mg/kg/injection, schedule: Q01DX001 (ip), vehicle: other 100 % of control

CC(=O)NC1CCCC(OC(C)=O)C1 (centres undefined)
inactive: [1] 88 % of control | [2] 91 % of control

COc1ccc(NC(=O)Nc2cccc(C(F)(F)F)c2)c(OC)c1
inactive: dose: 100.0 mg/kg/injection, schedule: Q01DX009 (ip), vehicle: gum acacia 102 % of control | dose: 200.0 mg/kg/injection, schedule: Q01DX009 (ip), vehicle: gum acacia 98 % of control | dose: 400.0 mg/kg/injection, schedule: Q01DX009 (ip), vehicle: gum acacia 101 % of control

CCC1(O)C2CCCC1CCC2 (centres undefined)
inactive: [2] 97 % of control | [3] 97 % of control | [4] 94 % of control | [5] 92 % of control | dose: 400.0 mg/kg/injection, schedule: Q01DX009 (ip), vehicle: saline with Tween-80 97 % of control | [6] 97 % of control

CC(=O)OCc1ccccn1
inactive: dose: 100.0 mg/kg/injection, schedule: Q01DX009 (ip), vehicle: saline 97 % of control | [7] 94 % of control | dose: 200.0 mg/kg/injection, schedule: Q01DX009 (ip), vehicle: saline 97 % of control | [8] 99 % of control | [9] 93 % of control

N=C(N)S(=O)O
inactive: [2] 104 % of control

O=C(Nc1ccc(Cl)cc1)Nc1ccc([N+](=O)[O-])cc1[N+](=O)[O-]
inactive: dose: 100.0 mg/kg/injection, schedule: Q04DX002 (ip), vehicle: Klucel (hydroxypropylcellulose) (HPC) 111 % of control | dose: 200.0 mg/kg/injection, schedule: Q04DX002 (ip), vehicle: Klucel (hydroxypropylcellulose) (HPC) 108 % of control | dose: 400.0 mg/kg/injection, schedule: Q04DX002 (ip), vehicle: Klucel (hydroxypropylcellulose) (HPC) 108 % of control

O=C1c2c(cccc2NCCO)Cc2cccc(NCCO)c21
inactive: [10] 102 % of control | [3] 98 % of control | [11] 104 % of control | [5] 93 % of control | [12] 96 % of control | [6] 96 % of control

CCn1c(C)cc(=O)n1-c1ccc([N+](=O)[O-])cc1
inactive: [3] 96 % of control | [5] 104 % of control | [6] 98 % of control

Clc1ccc(-c2cc(=[N+]3CC[N+](=c4cc(-c5ccc(Cl)cc5)ss4)CC3)ss2)cc1
inactive: dose: 50.0 mg/kg/injection, schedule: Q01DX009 (ip), vehicle: water 102 % of control | dose: 100.0 mg/kg/injection, schedule: Q01DX009 (ip), vehicle: water 89 % of control | dose: 100.0 mg/kg/injection, schedule: Q04DX003 (ip), vehicle: water 106 % of control | dose: 200.0 mg/kg/injection, schedule: Q01DX009 (ip), vehicle: water 105 % of control | dose: 200.0 mg/kg/injection, schedule: Q04DX003 (ip), vehicle: water 104 % of control | dose: 400.0 mg/kg/injection, schedule: Q04DX003 (ip), vehicle: water 107 % of control

O=c1[nH]ncc(Cl)c1Cl
inactive: dose: 12.5 mg/kg/injection, schedule: Q01DX009 (ip), vehicle: saline with Tween-80 92 % of control | dose: 25.0 mg/kg/injection, schedule: Q01DX009 (ip), vehicle: saline with Tween-80 95 % of control | [1] 106 % of control | [2] 87 % of control | [4] 87 % of control

c1ccc(N2CCSCC2)cc1
inactive: dose: 12.0 mg/kg/injection, schedule: Q01DX Z (ip), vehicle: methylcellulose (MC) 108 % of control | dose: 18.0 mg/kg/injection, schedule: Q01DX Z (ip), vehicle: methylcellulose (MC) 110 % of control | dose: 27.0 mg/kg/injection, schedule: Q01DX Z (ip), vehicle: methylcellulose (MC) 103 % of control | dose: 40.5 mg/kg/injection, schedule: Q01DX Z (ip), vehicle: methylcellulose (MC) 92 % of control

COc1ccc2c3c1OC1C(OC(C)=O)=CCC4C(C2)N(C)CCC314 (centres undefined)
inactive: [13] 93 % of control

O=C(CCN1CC1)OCCCl
inactive: dose: 50.0 mg/kg/injection, schedule: Q01DX001 (ip), vehicle: Klucel (hydroxypropylcellulose) (HPC) 112 % of control | [10] 106 % of control | [11] 101 % of control | [12] 111 % of control

ON=C1CCC(CC2CCCCC2)CC1 (centres undefined)
inactive: dose: 100.0 mg/kg/injection, schedule: Q04DX003 (ip), vehicle: saline with Tween-80 95 % of control | dose: 200.0 mg/kg/injection, schedule: Q04DX003 (ip), vehicle: saline with Tween-80 100 % of control | dose: 400.0 mg/kg/injection, schedule: Q04DX003 (ip), vehicle: saline with Tween-80 101 % of control

CCC(C)c1nc2c([nH]1)c(=O)n(C)c(=O)n2C (centres undefined)
inactive: [14] 110 % of control | [13] 101 % of control | [15] 101 % of control | [16] 104 % of control

N=N/C(=C\c1c(O)[nH]c2ccccc12)c1ccccc1
inactive: dose: 100.0 mg/kg/injection, schedule: Q04DX002 (ip), vehicle: gum acacia 92 % of control | dose: 200.0 mg/kg/injection, schedule: Q04DX002 (ip), vehicle: gum acacia 89 % of control | dose: 400.0 mg/kg/injection, schedule: Q04DX002 (ip), vehicle: gum acacia 100 % of control

C1=C(N2CCCCC2)C2CCC1C2 (centres undefined)
inactive: dose: 75.0 mg/kg/injection, schedule: Q01DX001 (ip), vehicle: saline 99 % of control

COc1ccc(/C=C2/N=C(C)OC2=O)cc1
inactive: [10] 92 % of control | [11] 98 % of control | [12] 102 % of control

Nc1ccc(S(=O)(=O)O)cc1[N+](=O)[O-]
inactive: [7] 93 % of control | [8] 95 % of control | [9] 96 % of control

C=CC[P+](Cc1cccc(OC)c1)(c1ccccc1)c1ccccc1
inactive: dose: 6.25 mg/kg/injection, schedule: Q04DX003 (ip), vehicle: saline 98 % of control | dose: 12.5 mg/kg/injection, schedule: Q04DX003 (ip), vehicle: saline 98 % of control | dose: 25.0 mg/kg/injection, schedule: Q04DX003 (ip), vehicle: saline 98 % of control | dose: 50.0 mg/kg/injection, schedule: Q04DX003 (ip), vehicle: saline 93 % of control

COC(=O)c1cc(C)cc(N2c3ccccc3-c3cc(C)ccc3S2(=O)=O)c1C
inactive: dose: 100.0 mg/kg/injection, schedule: Q01DX001 (ip), vehicle: carboxymethylcellulose (CMC) 104 % of control | dose: 200.0 mg/kg/injection, schedule: Q01DX001 (ip), vehicle: carboxymethylcellulose (CMC) 102 % of control | dose: 400.0 mg/kg/injection, schedule: Q01DX001 (ip), vehicle: carboxymethylcellulose (CMC) 96 % of control

CCC[CH2][Sn]([CH2]C)([CH2]C)[CH2]C
inactive: dose: 100.0 mg/kg/injection, schedule: Q04DX002 (ip), vehicle: saline 96 % of control | dose: 200.0 mg/kg/injection, schedule: Q04DX002 (ip), vehicle: saline 101 % of control

COC1OC(COC(C)=O)C(OC(C)=O)C(OC(C)=O)[CH]1[Hg][S]c1ccccc1 (centres undefined)
inactive: dose: 1.0 mg/kg/injection, schedule: Q01DX015 (ip), vehicle: carboxymethylcellulose (CMC) 105 % of control | dose: 2.0 mg/kg/injection, schedule: Q01DX015 (ip), vehicle: carboxymethylcellulose (CMC) 98 % of control | dose: 4.0 mg/kg/injection, schedule: Q01DX015 (ip), vehicle: carboxymethylcellulose (CMC) 100 % of control | dose: 8.0 mg/kg/injection, schedule: Q01DX015 (ip), vehicle: carboxymethylcellulose (CMC) 94 % of control and 86 % of control | dose: 16.0 mg/kg/injection, schedule: Q01DX015 (ip), vehicle: carboxymethylcellulose (CMC) 109 % of control

O=C1CCC2(CC2)C(=O)O1
inactive: [7] 91 % of control | [8] 95 % of control | [9] 91 % of control

Cc1cc(C)c([I+]c2ccccc2C(=O)[O-])c(C)c1
inactive: [14] 97 % of control | [13] 105 % of control | [15] 100 % of control | [16] 103 % of control

Nc1cc(Nc2ccc(CCO)cc2)nc(N)n1
inactive: dose: 200.0 mg/kg/injection, schedule: Q01DX Z (ip), vehicle: methylcellulose (MC) 86 % of control

CC(=O)OC1CCCc2c(O)c3c(c(O)c21)C(=O)c1ccccc1C3=O (centres undefined)
inactive: [13] 93 % of control | [15] 93 % of control | [16] 91 % of control
